Article PMC9057582, “HIF inhibitor 32-134D eradicates murine hepatocellular carcinoma in combination with anti-PD1 therapy” (The Journal of Clinical Investigation, 2022)

Tested on: Hepa1-6 tumor immune microenvironment
Assay: Flow cytometry of immune cell populations in Hepa1-6 tumors
Type: in vivo, C57L mice
Conditions: 40 mg/kg daily ip, 8 days
Experimental: To analyze the mechanism by which 32-134D increased the response to anti-PD1 therapy, Hepa1-6 tumor–bearing mice were treated with 32-134D or vehicle, and immune cell populations in well-established 200-mm^3 tumors were analyzed by flow cytometry (Supplemental Figure 8). […] The pivotal role of CD8^+ T cells and NK cells in antitumor immunity is underscored by the fact that expression of CD8A and CD8B mRNA as well as KLRK1 and KLRB1 mRNA (encoding the human homologs of CD314 and NK1.1, respectively) in HCC is associated with patient survival (P < 0.05; Supplemental Table 2).
Figure 5 Effect of 32-134D on the tumor immune microenvironment. (A–H) C57L mice were injected with Hepa1-6 HCC cells subcutaneously and when tumors reached a volume of 200 mm^3, the mice were treated with vehicle or 32-134D (40 mg/kg) by daily intraperitoneal injection for 8 days. Single-cell suspensions prepared from each tumor were analyzed by flow cytometry using fluorescent antibodies against the indicated cell surface proteins. The percentage of cells positive for the indicated markers is shown (mean ± SEM, n = 6). *P < 0.05 (Mann-Whitney test). M-MDSCs and G-MDSCs, monocytic and granulocytic myeloid-derived suppressor cells; TAMs, tumor-associated macrophages.
Hepa1-6 tumors were digested with collagenase (1 mg/mL) at 37°C for 30 minutes and the resulting single-cell suspension was passed through a 70-μm cell strainer and washed twice with cold PBS. Cells were resuspended in FC buffer for subsequent flow cytometry analysis. Cells were stained with at least 2 antibodies (see Supplemental Table 6) to capture different immune cell populations. G-MDSCs: Alexa Fluor 405–conjugated anti-CD11b and FITC-conjugated anti-Ly6G; M-MDSCs: Alexa Fluor 405–conjugated anti-CD11b and FITC-conjugated anti-Ly6C; TAMs: Alexa Fluor 405–conjugated anti-CD11b and allophycocyanin-conjugated (APC-conjugated) anti-F4/80; dendritic cells: Alexa Fluor 405–conjugated anti-CD11b, FITC-conjugated anti-CD11c, and APC-conjugated anti-F4/80; cytotoxic NK cells: FITC-conjugated anti-CD3, APC-conjugated anti-NK1.1, and Alexa Fluor 405–conjugated anti-CD314; effector T cells: phycoerythrin-conjugated (PE-conjugated) anti-CD8A and Alexa Fluor 405–conjugated anti–IFN-γ; activated T cells: PE-conjugated anti-CD8A, FITC-conjugated anti-CD69, and APC-conjugated anti-CD44; regulatory T cells: APC-conjugated anti-CD4, FITC-conjugated anti-CD25, and PE-conjugated anti-FOXP3. Live cells were gated using side-scatter and forward-scatter plots, and data were acquired using FACSDiva software (Becton Dickinson). Cell populations were gated using unstained control and single stained cell samples. Data analysis was performed using FlowJo software.
Supplemental Figure 8. Effect of 32-134D on Hepa1-6 tumor immune cell microenvironment. […]

In the case of `Brc1ccc2c(-c3csc(-c4c[nH]c5c(Br)cccc45)n3)c[nH]c2c1` [Compound 32-134D], the “increase in the ratio of effector T cells to TAMs” value is reported as 3 fold, the “percentage of regulatory T cells, G-MDSCs, and dendritic cells in tumors” value is reported as “not significantly affected” and the “percentage of CD8+IFN-γ+ effector T cells, CD8+CD44+CD69+ activated T cells, and NK1.1+CD3–CD314+ activated NK cells in tumors” value (P < 0.05) is reported as “significantly increased”. The “percentage of intratumoral CD11b+F4/80+ TAMs and CD11b+Ly6C+ M-MDSCs” value (P < 0.05) was “decreased percentage”.
